Results on 24 compounds are retold here after ChEMBL document CHEMBL1138147, “Respiratory syncytial virus fusion inhibitors. Part 3: Water-soluble benzimidazol-2-one derivatives with antiviral activity in vivo” (Bioorg Med Chem Lett, 2006).

One data set concerns Respiratory syncytial virus. Briefly: Antiviral activity against RSV Long strain in human Hep2 cells. The data set is classed as functional, organism-based. Particulars: HEp-2.
As to `CC(C)CCn1c(Cn2c(=O)n(Cc3cccc(C(=O)O)c3)c3ccccc32)nc2ccccc21`, the response was half-maximal at 0.01 µM (EC50). That is a double-digit nanomolar value.
Regarding `O=C(O)c1ccc(Cn2c(=O)n(Cc3nc4ccccc4n3CCCCO)c3ccccc32)cc1`, the EC50 (as a rule, the concentration that produces a half-maximal response) turned out to be 0.004 µM.
On to `C=C(C)n1c(=O)n(Cc2nc3ccccc3n2CCCc2nnn[nH]2)c2ccccc21`, for which a half-maximal response (EC50) required 0.014 µM.
For `CCOP(=O)(O)c1ccc(Cn2c(=O)n(Cc3nc4ccccc4n3CCC(C)C)c3ccccc32)cc1`, the EC50 is 0.048 µM.
`Cn1c(=O)n(Cc2nc3ccccc3[nH]2)c2ccccc21` returned an EC50 of 0.593 µM.
`CC(C)CCn1c(Cn2c(=O)n(Cc3ccccc3C(=O)N[C@@H](CC(=O)O)C(=O)O)c3ccccc32)nc2ccccc21` gave an EC50 of 0.006 µM.
On the same count and under the same terms, for `CC(C)CCn1c(Cn2c(=O)n(Cc3ccc(C(=O)N[C@@H](CC(=O)O)C(=O)O)cc3)c3ccccc32)nc2ccccc21` the value was 0.005 µM; for `CC(C)CCn1c(Cn2c(=O)n(CC(=O)NS(=O)(=O)c3ccccc3)c3ccccc32)nc2ccccc21`, 1.21 µM.
Take `O=c1n(Cc2nc3ccccc3[nH]2)c2ccccc2n1Cc1ccccc1S(=O)(=O)O`: the EC50 came out at 0.013 µM.
For `O=c1n(Cc2ccccc2)c2ccccc2n1Cc1nc2ccccc2[nH]1`, a half-maximal response (EC50) required 0.114 µM.
Same read-out and setting: for `Oc1nc2ccccc2n1Cc1nc2ccccc2n1CCn1cnnn1` the value was 1.2 µM.
Turning to `CC(C)CCn1c(Cn2c(=O)n(CCN(C)C)c3ccccc32)nc2ccccc21`, it took 0.4 µM to reach a half-maximal effect (EC50).
Turning to `CC(C)CCn1c(Cn2c(=O)n(CCCN(C)C)c3ccccc32)nc2ccccc21`, a half-maximal response (EC50) required 0.292 µM.
In turn, `CC(C)CCn1c(Cn2c(=O)n(CCC(=O)O)c3ccccc32)nc2ccccc21` registered an EC50 of 0.015 µM. Compared with the last compound, the EC50 is about 19-fold lower.
The same measure, in the same setting: under `CC(C)CCn1c(Cn2c(=O)n(Cc3ccc(CP(=O)(O)O)cc3)c3ccccc32)nc2ccccc21` stands 0.051 µM.
As to `CC(C)CCn1c(Cn2c(=O)n(CC(=O)NS(C)(=O)=O)c3ccccc32)nc2ccccc21`, the EC50 came out at 0.613 µM.
Regarding `CC(C)n1c(=O)n(Cc2nc3ccccc3n2CCc2nnn[nH]2)c2ccccc21`, a half-maximal response (EC50) required 0.015 µM.
Regarding `CC(C)CCn1c(Cn2c(=O)n(Cc3nn[nH]n3)c3ccccc32)nc2ccccc21`, the EC50 was 0.5 µM.
`C=C(C)n1c(=O)n(Cc2nc3ccccc3n2CCCN(C)C)c2ccccc21` came in with an EC50 of 0.075 µM. This EC50 lies about 6.7-fold lower than the previous one.
In the case of `CC(C)CCn1c(Cn2c(=O)n(Cc3ccc(Cn4c(=O)ccn(CC(=O)O)c4=O)cc3)c3ccccc32)nc2ccccc21`, the EC50 came out at 0.003 µM.
Turning to `CC(C)CCn1c(Cn2c(=O)n(CCCCS(=O)(=O)O)c3ccccc32)nc2ccccc21`, the EC50 was found to be 0.052 µM.
Still for that read-out and setting: under `CC(C)CCn1c(Cn2c(=O)n(Cc3ccc(C(=O)O)cc3)c3ccccc32)nc2ccccc21` stands 0.011 µM.
With `O=C(O)Cn1c(=O)n(Cc2nc3ccccc3n2CCCO)c2ccccc21`, it took 1.93 µM to reach a half-maximal effect (EC50).

System in a further data set: not listed separately
The data set is described as follows: Therapeutic index (CC50/EC50) for RSV infected Hep2 cells. The class given is cell-based, HEp-2. The following applies: human, read-out: Ratio CC50/EC50.
On to `CC(C)CCn1c(Cn2c(=O)n(Cc3cccc(C(=O)O)c3)c3ccccc32)nc2ccccc21`, for which the selectivity ratio is 1070.
In the case of `O=C(O)c1ccc(Cn2c(=O)n(Cc3nc4ccccc4n3CCCCO)c3ccccc32)cc1`, the selectivity ratio was above 49000.
Still for that read-out and setting: for `C=C(C)n1c(=O)n(Cc2nc3ccccc3n2CCCc2nnn[nH]2)c2ccccc21` the value was above 23.
As to `CCOP(=O)(O)c1ccc(Cn2c(=O)n(Cc3nc4ccccc4n3CCC(C)C)c3ccccc32)cc1`, the selectivity ratio is above 3350.
Consider `Cn1c(=O)n(Cc2nc3ccccc3[nH]2)c2ccccc21`, for which the selectivity ratio is above 340.
For `CC(C)CCn1c(Cn2c(=O)n(Cc3ccccc3C(=O)N[C@@H](CC(=O)O)C(=O)O)c3ccccc32)nc2ccccc21`, the selectivity ratio was at least 25700.
On to `CC(C)CCn1c(Cn2c(=O)n(Cc3ccc(C(=O)N[C@@H](CC(=O)O)C(=O)O)cc3)c3ccccc32)nc2ccccc21`, for which the selectivity ratio is above 28800.
With `CC(C)CCn1c(Cn2c(=O)n(CC(=O)NS(=O)(=O)c3ccccc3)c3ccccc32)nc2ccccc21`, the selectivity ratio was 12.
For `O=c1n(Cc2nc3ccccc3[nH]2)c2ccccc2n1Cc1ccccc1S(=O)(=O)O`, the selectivity ratio amounted to 9970.
Consider `O=c1n(Cc2ccccc2)c2ccccc2n1Cc1nc2ccccc2[nH]1`, for which the selectivity ratio was 1130.
`Oc1nc2ccccc2n1Cc1nc2ccccc2n1CCn1cnnn1`: the selectivity ratio stood at 77.
The same measure, in the same setting: for `CC(C)CCn1c(Cn2c(=O)n(CCN(C)C)c3ccccc32)nc2ccccc21` the value was 25.
For `C=C(C)n1c(=O)n(Cc2nc3ccccc3n2CCc2nn[nH]n2)c2ccccc21`, the selectivity ratio is 14600.
With `CC(C)CCn1c(Cn2c(=O)n(CCCN(C)C)c3ccccc32)nc2ccccc21`, the selectivity ratio is 18.
Regarding `CC(C)CCn1c(Cn2c(=O)n(CCC(=O)O)c3ccccc32)nc2ccccc21`, the selectivity ratio came to 6810.
With `CC(C)CCn1c(Cn2c(=O)n(Cc3ccc(CP(=O)(O)O)cc3)c3ccccc32)nc2ccccc21`, the selectivity ratio was determined as 55.
`CC(C)CCn1c(Cn2c(=O)n(CC(=O)NS(C)(=O)=O)c3ccccc32)nc2ccccc21`: the selectivity ratio is 247.
Take `CC(C)n1c(=O)n(Cc2nc3ccccc3n2CCc2nnn[nH]2)c2ccccc21`: the selectivity ratio turned out to be 11800.
Take `CC(C)CCn1c(Cn2c(=O)n(Cc3nn[nH]n3)c3ccccc32)nc2ccccc21`: the selectivity ratio is above 420.
Regarding `C=C(C)n1c(=O)n(Cc2nc3ccccc3n2CCCN(C)C)c2ccccc21`, the selectivity ratio turned out to be 265.
Take `CC(C)CCn1c(Cn2c(=O)n(Cc3ccc(Cn4c(=O)ccn(CC(=O)O)c4=O)cc3)c3ccccc32)nc2ccccc21`: the selectivity ratio was above 53000.
With `CC(C)CCn1c(Cn2c(=O)n(CCCCS(=O)(=O)O)c3ccccc32)nc2ccccc21`, the selectivity ratio came to 56.
On to `CC(C)CCn1c(Cn2c(=O)n(Cc3ccc(C(=O)O)cc3)c3ccccc32)nc2ccccc21`, for which the selectivity ratio worked out at 2480.
Turning to `O=C(O)Cn1c(=O)n(Cc2nc3ccccc3n2CCCO)c2ccccc21`, the selectivity ratio turned out to be 119.

A further data set concerns HEp-2. Briefly: Cytotoxicity against human Hep2 cells infected with RSV Long strain.
Details: not given
The data set is classed as functional.
On to `CC(C)CCn1c(Cn2c(=O)n(Cc3cccc(C(=O)O)c3)c3ccccc32)nc2ccccc21`, for which the CC50 (usually the concentration that lowers cell viability or growth by half) turned out to be 10.7 µM.
On the same count and under the same terms, for `O=C(O)c1ccc(Cn2c(=O)n(Cc3nc4ccccc4n3CCCCO)c3ccccc32)cc1` the value was above 196 µM.
As for `C=C(C)n1c(=O)n(Cc2nc3ccccc3n2CCCc2nnn[nH]2)c2ccccc21`, the CC50 is above 0.33 µM.
Still for that read-out and setting: under `CCOP(=O)(O)c1ccc(Cn2c(=O)n(Cc3nc4ccccc4n3CCC(C)C)c3ccccc32)cc1` stands above 180 µM; under `Cn1c(=O)n(Cc2nc3ccccc3[nH]2)c2ccccc21`, above 202 µM; under `CC(C)CCn1c(Cn2c(=O)n(Cc3ccccc3C(=O)N[C@@H](CC(=O)O)C(=O)O)c3ccccc32)nc2ccccc21`, 154 µM.
Regarding `CC(C)CCn1c(Cn2c(=O)n(Cc3ccc(C(=O)N[C@@H](CC(=O)O)C(=O)O)cc3)c3ccccc32)nc2ccccc21`, the CC50 was above 144 µM.
The same measure, in the same setting: for `CC(C)CCn1c(Cn2c(=O)n(CC(=O)NS(=O)(=O)c3ccccc3)c3ccccc32)nc2ccccc21` the value was 14.1 µM; for `O=c1n(Cc2nc3ccccc3[nH]2)c2ccccc2n1Cc1ccccc1S(=O)(=O)O`, 130 µM; for `O=c1n(Cc2ccccc2)c2ccccc2n1Cc1nc2ccccc2[nH]1`, 129 µM.
`Oc1nc2ccccc2n1Cc1nc2ccccc2n1CCn1cnnn1` came in with a CC50 of 92 µM.
Still for that read-out and setting: for `CC(C)CCn1c(Cn2c(=O)n(CCN(C)C)c3ccccc32)nc2ccccc21` the value was 10 µM; for `CC(C)CCn1c(Cn2c(=O)n(CCCN(C)C)c3ccccc32)nc2ccccc21`, 5.3 µM.
`CC(C)CCn1c(Cn2c(=O)n(CCC(=O)O)c3ccccc32)nc2ccccc21` registered a 50% cytotoxic concentration (CC50) of 102 µM.
Compound `CC(C)CCn1c(Cn2c(=O)n(Cc3ccc(CP(=O)(O)O)cc3)c3ccccc32)nc2ccccc21` came in with a CC50 of 2.8 µM.
The same measure, in the same setting: for `CC(C)CCn1c(Cn2c(=O)n(CC(=O)NS(C)(=O)=O)c3ccccc32)nc2ccccc21` the value was 152 µM.
Take `CC(C)n1c(=O)n(Cc2nc3ccccc3n2CCc2nnn[nH]2)c2ccccc21`: the cytotoxic concentration (CC50) turned out to be 177 µM.
On the same count and under the same terms, for `CC(C)CCn1c(Cn2c(=O)n(Cc3nn[nH]n3)c3ccccc32)nc2ccccc21` the value was above 210 µM; for `C=C(C)n1c(=O)n(Cc2nc3ccccc3n2CCCN(C)C)c2ccccc21`, 19.9 µM; for `CC(C)CCn1c(Cn2c(=O)n(Cc3ccc(Cn4c(=O)ccn(CC(=O)O)c4=O)cc3)c3ccccc32)nc2ccccc21`, above 159 µM.
For `CC(C)CCn1c(Cn2c(=O)n(CCCCS(=O)(=O)O)c3ccccc32)nc2ccccc21`, the CC50 was 2.9 µM.
The compound `CC(C)CCn1c(Cn2c(=O)n(Cc3ccc(C(=O)O)cc3)c3ccccc32)nc2ccccc21` returned a half-maximal cytotoxic concentration (CC50) of 27.3 µM. Against the preceding compound, the CC50 is about 9.4-fold higher.
On to `O=C(O)Cn1c(=O)n(Cc2nc3ccccc3n2CCCO)c2ccccc21`, for which the CC50 turned out to be 229 µM.

Another data set deals with Cotton rat. Briefly: Efficacy in cotton rat measured as reduction in log TCID50 of RSV per gram of lung at 2.0 mg/mL. The data set is classed as functional, Sigmodon.
Details: not given
`CC(C)CCn1c(Cn2c(=O)n(Cc3ccc(C(=O)N[C@@H](CC(=O)O)C(=O)O)cc3)c3ccccc32)nc2ccccc21` had an Efficacy of 2.6.
